In PubChem BioAssay (NCI):
“And” between values parts separate entries of the source, which are not always exact repeats. Identical values can stand only once.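 All cell lines were grown in 96-well plates and treated with compound for 48 hours. GI50 is the concentration that inhibits growth by half. TGI denotes the concentration required for complete inhibition of growth.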

Legend:
Assay in all cases: growth of human tumour cells (NCI), 48 h
HOP-92 NSCLC = test system: HOP-92 NSCLC
M14 melanoma = test system: M14 melanoma
SF-295 CNS = test system: SF-295 CNS
NCI-H226 lung = test system: NCI-H226 lung
HCT-15 colon = test system: HCT-15 colon
A549 NSCLC = test system: A549 NSCLC
OVCAR-5 ovarian = test system: OVCAR-5 ovarian
HL-60(TB) leukemia = test system: HL-60(TB) leukemia
HT29 colon = test system: HT29 colon
NCI/ADR-RES ovarian = test system: NCI/ADR-RES ovarian

| SMILES | GI50 (HOP-92 NSCLC) [µM] | TGI (HOP-92 NSCLC) [µM] | GI50 (M14 melanoma) [µM] | TGI (M14 melanoma) [µM] | GI50 (SF-295 CNS) [µM] | TGI (SF-295 CNS) [µM] | GI50 (NCI-H226 lung) [µM] | TGI (NCI-H226 lung) [µM] | GI50 (HCT-15 colon) [µM] | TGI (HCT-15 colon) | GI50 (A549 NSCLC) [µM] | TGI (A549 NSCLC) | GI50 (OVCAR-5 ovarian) [µM] | TGI (OVCAR-5 ovarian) [µM] | GI50 (HL-60(TB) leukemia) [µM] | TGI (HL-60(TB) leukemia) | GI50 (HT29 colon) [µM] | TGI (HT29 colon) | GI50 (NCI/ADR-RES ovarian) [µM] | TGI (NCI/ADR-RES ovarian) [µM] |
| --- | --- | --- | --- | --- | --- | --- | --- | --- | --- | --- | --- | --- | --- | --- | --- | --- | --- | --- | --- | --- |
| CC(C)(C)C([O-])=C1C(=O)c2ccccc2C1=O.CC(C)(C)C([O-])=C1C(=O)c2ccccc2C1=O.CC[O-].CC[O-].[Ti+4] | 26.9 | > 100 | 57.4 | > 100 | 28.3 | > 100 | 56.7 | > 100 | 29.5 | > 100 µM | 36.2 | > 100 µM | 34.8 | > 100 | 27.1 | 67 µM | 32.9 | > 100 µM | – | – |
| Cn1cc(NC(=O)c2cc(NC(=O)CCCCCC(=O)Nc3cc(C(=O)Nc4cc(C(=O)NCCC(=N)N)n(C)c4)n(C)c3)cn2C)cc1C(=O)NCCC(=N)N | – | > 100 | – | > 100 | – | > 100 | – | – | – | > 100 µM | – | > 100 µM | – | > 100 | – | > 100 µM | – | > 100 µM | – | – |
| Cc1ccc(S(=O)(=O)ON/N=C2/C3OC3[C@@H]3CCCC[C@H]23)cc1 (stereo partly specified) | – | > 100 | – | > 100 | – | > 100 | – | > 100 | – | > 100 µM | – | > 100 µM | – | – | – | > 100 µM | – | > 100 µM | – | – |
| CC1=C(N2CC2)C(=O)c2nc3n(c2C1=O)CCC3O (stereo unspecified) | – | 5.72 | – | 2.8 | – | 0.512 | – | 2.14 | – | 29.6 µM | – | 1.49 µM | – | 3.84 | – | 8.47 µM | – | 3.37 µM | – | – |
| Cn1nnnc1[N-]Cc1ccccc1.[Au+].c1ccc([PH+](c2ccccc2)c2ccccc2)cc1 | 2.44 | 4.68 | 1.67 | 3.83 | 4.45 | 22.8 | 8.49 | 29.7 | 2.53 | 9.18 µM | 21.2 | 71.3 µM | 14.8 | 28.4 | 0.509 | 1.45 µM | 5.02 | 13.3 µM | – | – |
| CCOC(=O)/C=C/c1ccc(C(=O)OCC)[nH]1 | – | – | 2.82 | > 100 | 3.5 | 41.2 | 15.4 | > 100 | 3.11 | > 100 µM | 5.69 | > 100 µM | 19.5 | > 100 | 1.62 | 9.89 µM | 2.82 | 14.2 µM | 3.3 | > 100 |
| CCc1cccc(C)c1NC(=O)CC1Sc2ccccc2NC1=O (stereo unspecified) | – | 99.7 | – | > 100 | – | > 100 | – | 64.6 | – | > 100 µM | – | > 100 µM | – | > 100 | – | 47.3 µM | – | – | – | – |
| CCCN(CCC)c1c([N+](=O)[O-])cc(S(N)(=O)=O)cc1[N+](=O)[O-] | – | – | – | 30.9 | – | 32.3 | – | 42.7 | – | 32.2 µM | – | 32.8 µM | – | 37.9 | – | – | – | 34 µM | – | – |
| CC(O)C(NC(=O)C(CS)NC(=O)C(CO)NC(=O)C(CCCCN)NC(=O)C(Cc1c[nH]c2ccccc12)NC(=O)C(Cc1ccc(O)cc1)NC(=O)C(CS)NC(=O)C(N)Cc1ccccc1)C(N)=O (stereo unspecified) | – | – | – | > 25 | – | > 25 | – | > 25 | – | > 25 µM and 56.2 µM | 18.7 | > 25 µM and 51.6 µM | – | > 25 | 21.5 | > 25 µM and 40.5 µM | – | > 25 µM and 61.4 µM | – | > 25 |
| COc1ccc(/C=[N+](\[O-])[C@H](COCc2ccccc2)c2ccccc2)cc1 | – | > 100 | – | – | – | > 100 | – | – | – | – | – | – | – | > 100 | – | 77.2 µM | – | > 100 µM | – | – |
| CC1=C2N3C[C@@H](n4c(=O)n(C)c(=O)n43)C23CCC1n1c(=O)n(C)c(=O)n13 | – | – | – | > 100 | – | > 100 | – | > 100 | – | 52.8 µM | – | – | – | > 100 | – | > 100 µM | – | > 100 µM | – | – |
| COC(=O)/C(=N/NC(C)(C)C)C(C(=O)C=C(C)C)C(=O)C(=O)Nc1ccc(Cl)cc1C (stereo unspecified) | – | – | – | > 100 | – | > 100 | – | > 100 | – | > 100 µM | – | > 100 µM | – | > 100 | – | > 100 µM | – | > 100 µM | – | – |
| CCCCCCCCCCCC(=O)C1=C(O)C(O)CCC1=O (stereo unspecified) | – | 48.3 | – | – | – | 30.5 | – | 70.3 | – | 27.3 µM | – | > 100 µM | – | 80.2 | – | 38.8 µM | – | 30.1 µM | – | – |
| O=C(O)c1[nH]c(C(=O)O)c(CC(F)(F)C(F)(F)C(F)(F)F)c1CC(F)(F)C(F)(F)C(F)(F)F | – | > 100 | – | > 100 | – | > 100 | – | > 100 | – | > 100 µM | – | > 100 µM | – | > 100 | – | > 100 µM | – | > 100 µM | – | – |
| O=C(Nc1ccc(Br)cc1)c1cc(Br)cc(Br)c1O | – | – | 2.99 | 11.3 | 1.83 | 5 | 3.45 | 12.3 | 3.2 | 13.5 µM | 2.65 | 7.9 µM | 2.7 | 19.6 | – | – | 4.02 | 22.7 µM | 2.94 | 9.47 |
| COc1ccc([N+](=O)[O-])c2c(NCC(O)CO)ccnc12 (stereo unspecified) | – | – | – | > 100 | – | > 100 | – | – | – | 35.1 µM | – | > 100 µM | – | > 100 | – | > 100 µM | – | > 100 µM | – | – |
| O=C(N=Nc1c(O)[nH]c2ccccc12)c1ccccc1O | – | – | – | > 100 | – | > 100 | – | > 100 | – | > 100 µM | – | > 100 µM | – | > 100 | – | > 100 µM | – | > 100 µM | – | – |
| NC(N)=N/N=C/c1c(-c2cc(Cl)sc2Cl)nc2n1CCS2 | – | – | 6.93 | 14.3 | 8.75 | 17.1 | 8.31 | 16.8 | 9 | 16.6 µM | 9.57 | 22 µM | 7.87 | 14.7 | – | – | – | – | > 50 | > 50 |
| CC(SC1=CC(=O)c2c(O)ccc(O)c2C1=O)C(=O)O (stereo unspecified) | – | > 83.1 | – | > 75.8 | – | > 100 | – | > 100 | – | > 55.3 µM | – | > 100 µM | – | > 100 | – | > 41.9 µM | – | > 100 µM | – | – |
